{
  "source": "patent US9763909B2",
  "about": "“Methods for treating inflammation and pain” (Olatec Therapeutics LLC, priority 2012, dated 2017)",
  "key": {"[1]": {"test_system": "arachidonic acid induced ear swelling", "test": "Topical arachidonic acid induced ear swelling model, oral administration", "format": "in vivo, mice", "details": "for % Inhibition: ear swelling at 60 minutes", "procedure": "The test compound, dexamethasone (positive control), and vehicle were orally administered to mice and evaluated for anti-inflammatory activity in the topical arachidonic acid induced ear swelling model in mice. […] All animals were maintained in a controlled temperature (22-24° C.) and humidity (60%-70%) environment with 12-hour light/dark cycles for at least one week prior to use. Arachidonic acid (0.5 mg in 20 μL acetone) was applied topically onto the anterior and posterior surfaces of the right ear of test animals to induce inflammation. […] At 60 minutes after arachidonic acid induction of ear edema, the thickness of the right ear and the left ear was measured and the difference calculated as an indication of the inflammation in the right ear."}, "tail-flick latency": {"test_system": "tail-flick latency", "test": "Tail-flick latency (52° C. water bath), potentiation of morphine analgesia", "format": "in vivo, mice", "procedure": "The response of the mice to nociceptive stimuli was evaluated using the time of tail-flick or tail-flick latency from 52° C. water bath. Briefly, the animal was placed in a restrainer with its tail outside. The tail (distal ⅓rd) was immersed into 52° C. water and the time for the mouse to flick its tail out of the water was recorded. The maximum exposure permitted was 10 seconds. If there was no response within 10 seconds, the animal tail was removed from the water to prevent damage to the tail. Baseline data were collected using the tail flick procedure 2 times over 1 hour, prior to any drug administration. The last baseline response data point was used as basal tail flick latency.\n3-(methylsulfonyl)acrylonitrile was dissolved in 0.5% methyl cellulose (MC) to 2 mg/mL, and orally administered to mice (n=5) in a volume of 10 ml/kg (20 mg/kg), 1 hour prior to morphine dosing. One mL plastic disposal tuberculin syringes (Becton Dickinson & Co. Franklin Lakes, N.J.) and 20 gauge×38 mm flexible plastic feeding tubes (Instech Laboratories, Plymouth Meeting, Pa.) were used for oral drug administration. Morphine at 5 mg/kg in saline was subcutaneously administered to mice at time zero.\nTail flick measurements were made at 5, 15, 30, 45, 60, and 75 minutes post-morphine administration.\nStatistical evaluation was done using an appropriate analysis of variance (ANOVA) using tail flick latencies. […] Analysis with p-values <0.05 is considered significant."}, "IL-1β": {"test_system": "IL-1β", "test": "Inhibition of IL-1β secretion in LPS-stimulated PBMCs", "format": "cell-based", "details": "Homo sapiens, PBMC; PBMCs stimulated with LPS (50 pg/mL); read-out: EC50 for inhibiting IL-1β", "procedure": "(§1) Objective: Test 3-(methylsulfonyl)acrylonitrile for inhibition of cytokine secretion in peripheral blood mononuclear cells (PBMCs) stimulated with lipopolysaccharide (LPS).\n(§2) Cytokines: IL-1β, IL-6, TNFα\n(§3) Test Compound Dose Concentrations: 50, 10, 5, 1, 0.5, 0.1 μM\n(§4) Cells negative control: Vehicle only/No LPS\n(§5) Positive control: Dexamethasone (100 nM, n=2)\n(§6) 1. Microtiter plates were seeded with 1×10^4 PBMCs/well in […], culture medium (RPMI 1640, 10% FBS, 1% Pen/Strep, 2 mM L-Alanyl-L-glutamine)\n(§7) 2. The plates were incubated at 37° C. in 5% CO2 for 1 hour.\n(§8) 3. 10 μL of test compound (at different concentrations), dexamethasone, and vehicle controls were added to appropriate wells, and the plates were incubated at 37° C. in 5% CO2 for 1 hour.\n(§9) 4. 40 μL of LPS (50 pg/mL final) were added and the plates were incubated at 37° C. in 5% CO2 for 1 hour.\n(§10) 5. The plates were centrifuged at 1000 rpm for 10 minutes and supernatants were collected.\n(§11) 6. The supernatants were assayed for IL-1β, IL-6, TNFα levels using the Luminex Bead kit.\n(§12) 7. EC50 values were determined."}, "IL-6": {"test_system": "IL-6", "test": "Inhibition of IL-6 secretion in LPS-stimulated PBMCs", "format": "cell-based", "details": "Homo sapiens, PBMC; PBMCs stimulated with LPS (50 pg/mL); read-out: EC50 for inhibiting IL-6", "procedure": "as §1, §2, §3, §4, §5, §6, §7, §8, §9, §10, §11, §12"}, "TNFα": {"test_system": "TNFα", "test": "Inhibition of TNFα secretion in LPS-stimulated PBMCs", "format": "cell-based", "details": "Homo sapiens, PBMC; PBMCs stimulated with LPS (50 pg/mL); read-out: EC50 for inhibiting TNFα", "procedure": "as §1, §2, §3, §4, §5, §6, §7, §8, §9, §10, §11, §12"}},
  "data": [
    {"compound": "C[C@@H]1C[C@H]2[C@@H]3CCC4=CC(=O)C=C[C@]4(C)[C@@]3(F)[C@@H](O)C[C@]2(C)[C@@]1(O)C(=O)CO", "note": "[Dexamethasone, reference compound]", "values": [
      {"measurement": "% Inhibition", "setting": "[1]; 0.3 mg/kg oral gavage 3 hour before arachidonic acid", "value": 39, "unit": "%"}
    ]},
    {"compound": "CN1CC[C@]23c4c5ccc(O)c4O[C@H]2[C@@H](O)C=C[C@H]3[C@H]1C5", "note": "[morphine, reference compound]", "values": [
      {"measurement": "analgesic effect (tail flick), morphine alone", "setting": "tail-flick latency; morphine 5 mg/kg s.c., 75 minutes post dosing", "value": "no effect"}
    ]},
    {"compound": "CS(=O)(=O)C=CC#N", "note": "[3-(methylsulfonyl)acrylonitrile]", "values": [
      {"measurement": "EC50", "setting": "IL-1β", "value": 160, "unit": "nM"},
      {"measurement": "EC50", "setting": "IL-6", "value": 190, "unit": "nM"},
      {"measurement": "EC50", "setting": "TNFα", "value": 300, "unit": "nM"},
      {"measurement": "% Inhibition", "setting": "[1]; 0.1 mg/kg oral gavage 1 hour before arachidonic acid", "value": 11, "unit": "%"},
      {"measurement": "% Inhibition", "setting": "[1]; 0.3 mg/kg oral gavage 1 hour before arachidonic acid", "value": 11, "unit": "%"},
      {"measurement": "% Inhibition", "setting": "[1]; 1 mg/kg oral gavage 1 hour before arachidonic acid", "value": 9, "unit": "%"},
      {"measurement": "% Inhibition", "setting": "[1]; 3 mg/kg oral gavage 1 hour before arachidonic acid", "value": 13, "unit": "%"},
      {"measurement": "% Inhibition", "setting": "[1]; 10 mg/kg oral gavage 1 hour before arachidonic acid", "value": 26, "unit": "%"},
      {"measurement": "inhibition in arachidonic acid induced ear swelling (in words)", "setting": "[1]; 10 mg/kg oral, at 60 minutes, vs vehicle, t-test p<0.05", "value": "significant inhibition"},
      {"measurement": "analgesic effect (tail flick), morphine plus compound", "setting": "tail-flick latency; 20 mg/kg oral 1 hour before morphine 5 mg/kg s.c., 75 minutes post dosing", "value": "strong analgesic effects"},
      {"measurement": "latency of tail flick, morphine plus compound vs morphine alone", "setting": "tail-flick latency; 20 mg/kg oral 1 hour before morphine 5 mg/kg s.c., measured at 30, 60, and 75 minutes post morphine dosing", "value": "increases the latency of tail flick significantly"}
    ]}
  ]
}
